Legend:
Type in all cases: binding
Athe_0597 [1] = biological target: T1, Athe_0597 (Caldicellulosiruptor bescii, UniProt A0ABY1SBW7); assay: differential scanning calorimetry; conditions: 5 mM sugar, 2 mg/mL protein, 50 mM HEPES, 300 mM NaCl, pH 7.0; 4 °C/min
T1 construct: gene SAMN05216240_2513; IMAC purified after 68 °C heat treatment
Excerpt: differential scanning calorimetry on Athe_0597

Athe_0597 [2] = biological target: T1, Athe_0597; assay: isothermal titration calorimetry; conditions: 25 °C; 50 mM HEPES, 300 mM NaCl, pH 7.0 (storage and characterization buffer); single-site model
Excerpt: isothermal titration calorimetry on Athe_0597

Athe_0598 [3] = biological target: T2, Athe_0598 (Caldicellulosiruptor bescii, UniProt A0ABY1SBM3); assay: isothermal titration calorimetry; conditions: 25 °C; 50 mM HEPES, 300 mM NaCl, pH 7.0 (storage and characterization buffer); single-site model
T2 construct: gene SAMN05216240_2512; IMAC purified after 68 °C heat treatment
Excerpt: isothermal titration calorimetry on Athe_0598

Athe_0598 [4] = biological target: T2, Athe_0598; assay: differential scanning calorimetry; conditions: 5 mM sugar, 2 mg/mL protein, 50 mM HEPES, 300 mM NaCl, pH 7.0; 4 °C/min
Excerpt: differential scanning calorimetry on Athe_0598

T1 sequence (A0ABY1SBW7 entry or part of it): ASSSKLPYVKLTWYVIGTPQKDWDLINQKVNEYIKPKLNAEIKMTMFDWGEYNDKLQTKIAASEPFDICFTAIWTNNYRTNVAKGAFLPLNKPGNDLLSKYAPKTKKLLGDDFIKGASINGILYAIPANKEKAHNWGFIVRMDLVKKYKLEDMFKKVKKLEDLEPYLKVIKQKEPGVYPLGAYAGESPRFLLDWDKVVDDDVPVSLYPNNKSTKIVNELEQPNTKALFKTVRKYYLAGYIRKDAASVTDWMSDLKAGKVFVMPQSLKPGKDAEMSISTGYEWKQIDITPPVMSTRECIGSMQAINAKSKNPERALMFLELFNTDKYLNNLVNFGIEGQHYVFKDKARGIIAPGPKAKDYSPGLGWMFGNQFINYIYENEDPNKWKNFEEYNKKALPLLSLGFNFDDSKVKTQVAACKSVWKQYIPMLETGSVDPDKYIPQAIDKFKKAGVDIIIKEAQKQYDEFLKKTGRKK
T2 sequence (A0ABY1SBM3 entry or part of it): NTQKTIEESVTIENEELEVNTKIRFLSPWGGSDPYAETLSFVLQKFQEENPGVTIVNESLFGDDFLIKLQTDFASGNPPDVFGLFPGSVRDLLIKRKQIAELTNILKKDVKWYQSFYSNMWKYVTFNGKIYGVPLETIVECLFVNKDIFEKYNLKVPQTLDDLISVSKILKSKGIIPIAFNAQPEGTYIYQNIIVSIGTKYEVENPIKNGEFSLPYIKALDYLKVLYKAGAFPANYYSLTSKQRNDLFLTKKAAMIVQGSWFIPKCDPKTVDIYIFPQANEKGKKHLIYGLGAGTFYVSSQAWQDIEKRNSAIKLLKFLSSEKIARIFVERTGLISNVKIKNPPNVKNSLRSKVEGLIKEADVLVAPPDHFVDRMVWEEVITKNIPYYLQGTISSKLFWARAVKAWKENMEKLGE

ΔTm (°C) (Athe_0597 [1])	Kd (Athe_0597 [2])	Kd (Athe_0598 [3])	ΔTm (°C) (Athe_0598 [4])	SMILES
6.89 °C	0.942 ± 0.12 µM			OC[C@H]1O[C@@H](O[C@H]2[C@H](O)[C@@H](O)[C@H](O[C@H]3[C@H](O)[C@@H](O)C(O)O[C@@H]3CO)O[C@@H]2CO)[C@H](O)[C@@H](O)[C@@H]1O (stereo partly shown) [G3, cellotriose]
8.72 °C	1.18 ± 0.12 µM			OC[C@H]1O[C@@H](O[C@H]2[C@H](O)[C@@H](O)[C@H](O[C@H]3[C@H](O)[C@@H](O)[C@H](O[C@H]4[C@H](O)[C@@H](O)[C@H](O[C@H]5[C@H](O)[C@@H](O)C(O)O[C@@H]5CO)O[C@@H]4CO)O[C@@H]3CO)O[C@@H]2CO)[C@H](O)[C@@H](O)[C@@H]1O (stereo partly shown) [G5, cellopentaose]
7.57 °C	0.228 ± 0.1 µM	2.84 ± 0.36 µM	8.53 °C	OC[C@H]1O[C@@H](O[C@H]2[C@H](O)[C@@H](O)C(O)O[C@@H]2CO)[C@H](O)[C@@H](O)[C@@H]1O (stereo partly shown) [G2, cellobiose]
9.30 °C	1.97 ± 0.52 µM			OC[C@H]1O[C@@H](O[C@H]2[C@H](O)[C@@H](O)[C@H](O[C@H]3[C@H](O)[C@@H](O)[C@H](O[C@H]4[C@H](O)[C@@H](O)C(O)O[C@@H]4CO)O[C@@H]3CO)O[C@@H]2CO)[C@H](O)[C@@H](O)[C@@H]1O (stereo partly shown) [G4, cellotetraose]
